Data: patent US12653809B2, “Urea, amide, and substituted heteroaryl compounds for CBL-B inhibition” (Nurix Therapeutics, Inc., priority 2019, dated 2026)

These compounds were tested against T1, Cbl-b (truncated variant, UniProt number Q13191) (Homo sapiens, UniProt Q13191) (assay: Cbl-b activity assay (TR-FRET, interaction of Cbl-b with UbcH5B-Ub)). Details: Biological Example 1A; low or high conditions not stated; read-out: IC50 values in the Cbl-b inhibition assay of Biological Example 1A.
T1 construct: made in house
Assay type: biochemical
Text: As described in Biological Example 1A, a Cbl-b activity assay (Cbl-b inhibition assay) used to measure the IC50 values for Cbl-b inhibition uses a mixture comprising candidate compound, Cbl-b (truncated, with an Avitag, and biotinylated), a fluorescently-labeled E2 enzyme UbcH5B labelled with ubiquitin conjugated to BODIPY-fluorescein (UbcH5B-Ub), streptavidin-terbium, and assay buffer. In one embodiment, the Cbl-b activity assay (Cbl-b inhibition assay) used to measure IC50 for inhibition of Cbl-b uses the conditions described in Biological Example 1A with 12 nM Cbl-b. […] In another embodiment, the Cbl-b activity assay (Cbl-b inhibition assay) used to measure IC50 for inhibition of Cbl-b uses the conditions described in Biological Example 1B, with candidate compound, 0.125 nM Cbl-b (truncated, with an avitag, and biotinylated), fluorescently labelled inhibitor probe, and assay buffer. Displacement of the inhibitor probe indicates Cbl-b activity.
Candidate compounds isolated from screening assays were evaluated for their ability to bind and inhibit Cbl-b, an E3 ubiquitin-protein ligase.
The ability of candidate compounds to inhibit Cbl-b activity was measured by monitoring the interaction of Cbl-b with UbcH5B-Ub in the presence of the candidate compound. A truncated variant of Cbl-b (UniProt number Q13191; SEQ ID NO:1) containing an Avitag at its N-terminus was co-expressed with BirA biotin ligase and purified using a standard protocol (see Dou et al., Nature Structural and Molecular Biology 8: 982-987, 2013; Avidity LLC).
Fluorescently labeled UbcH5B-Ub was prepared by conjugating ubiquitin (Ub), labeled at its N-terminus with Bodipy-Fluorescein, to UbcH5B, an E2 enzyme, harboring a cysteine to lysine mutation at position 85. This mutation is similar to a mutation that was previously reported (see Dou et al., Nature Structural and Molecular Biology 8: 982-987, 2013). Cbl-b activity assays were performed in a 384-well plate at room temperature in a 10 μL reaction volume by pre-incubating 12 nM Cbl-b (final concentration) in an assay buffer containing 50 mM HEPES pH 7.0, 100 mM NaCl, 0.01% Triton X-100, 0.01% BSA, and 1 mM DTT in the presence of a candidate compound in 1% DMSO (final concentration, High Conditions) for one hour. After incubation in the presence of the candidate compound, the plate was incubated for an additional 1.5 hours in the presence of 60 nM Src kinase with 1 mM ATP and 5 mM MgCl2 (final concentrations). Alternatively, compounds were tested as described above with assay buffer containing 50 mM NaCl instead of 100 mM NaCl and 30 nM Src kinase instead of 60 nM Src kinase (Low Conditions). Src kinase was prepared as previously described (see Kobashigawa et al., Proc Natl Acad Sci USA, 108: 20579-20584, 2011). […] The plate was incubated for one hour. Following the one hour incubation, the plates were read for TR-FRET signal at 520/620 nm using Envision plate reader (Perkin Elmer). The presence of a FRET signal that indicated Cbl-b was not inhibited by the compound candidate. The absence of a FRET signal indicated Cbl-b was inhibited by the compound candidate and was therefore a Cbl-b inhibitor.
The resulting data for the Cbl-b activity assays were analyzed using standard methods to report the IC50 values of the tested compounds (Tables 3-4). The resulting data for the Cbl-b binding assay was solvent corrected and double-referenced prior to analysis. All data were globally fit to a steady-state affinity and kinetic binding model where applicable. Compounds were ranked into bins A through D as follows for IC50: A indicates <0.1 μM, B indicates 0.1 μM≤IC50<1 μM, C indicates 1 μM≤IC50<5 μM, and D indicates 5 μM≤IC50.

T1 sequence (Q13191 36-427): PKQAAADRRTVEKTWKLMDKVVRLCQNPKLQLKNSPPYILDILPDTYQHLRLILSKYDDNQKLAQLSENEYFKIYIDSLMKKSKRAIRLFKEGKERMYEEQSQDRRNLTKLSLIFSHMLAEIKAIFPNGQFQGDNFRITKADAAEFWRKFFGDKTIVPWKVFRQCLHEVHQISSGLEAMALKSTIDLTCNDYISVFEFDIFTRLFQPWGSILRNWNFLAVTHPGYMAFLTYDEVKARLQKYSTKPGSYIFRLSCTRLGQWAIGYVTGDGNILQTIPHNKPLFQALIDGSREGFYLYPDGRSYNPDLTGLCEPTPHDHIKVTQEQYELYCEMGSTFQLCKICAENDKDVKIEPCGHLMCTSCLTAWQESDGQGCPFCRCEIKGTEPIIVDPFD

First: C[C@H](Sc1nncn1C)c1cccc(-c2cc(-c3ccccc3)n[nH]2)c1 [Example 102, (S)-4-methyl-3-((1-(3-(3-phenyl-1H-pyrazol-5-yl)phenyl)ethyl)thio)-4H-1,2,4-triazole]
Second: C[C@H](Sc1nncn1C)c1cccc(-n2ncc(-c3ccc(CO)cc3)n2)c1 [Example 84, (S)-(4-(2-(3-(1-(4-methyl-4H-1,2,4-triazol-3-ylthio)ethyl)phenyl)-2H-1,2,3-triazol-4-yl)phenyl)methanol]
The IC50 of the first is lower: 0.1 to 1 µM for the first, 1 to 5 µM for the second.

Same assay, conditions: high conditions: 100 mM NaCl, 60 nM Src kinase; 12 nM Cbl-b; read-out: Cbl-b activity IC50

C[C@H](Sc1nncn1C)c1cccc(NC(=O)N2CCO[C@H]([C@H]3CCCO3)C2)c1 [Example 135, (S)—N-(3-((S)-1-((4-methyl-4H-1,2,4-triazol-3-yl)thio)ethyl)phenyl)-2-((R)-tetrahydrofuran-2-yl)morpholine-4-carboxamide] and C[C@H](Sc1nncn1C)c1cccc(NC(=O)N2CCCC2)c1 [Example 151, N-[3-[(1S)-1-[(4-methyl-4H-1,2,4-triazol-3-yl)sulfanyl]ethyl]phenyl]pyrrolidine-1-carboxamide] cannot be ordered by IC50: ≥ 5 µM for the first, ≥ 5 µM for the second.

First: C[C@H](Cc1nncn1C)c1cccc(-c2n[nH]c3cccnc23)c1 [Example 118, (R)-3-(3-(1-(4-methyl-4H-1,2,4-triazol-3-yl)propan-2-yl)phenyl)-1H-pyrazolo[4,3-b]pyridine]
Second: C[C@H](Sc1nncn1C)c1cccc(-c2cc(-c3ccccc3)n[nH]2)c1 [Example 102, (S)-4-methyl-3-((1-(3-(3-phenyl-1H-pyrazol-5-yl)phenyl)ethyl)thio)-4H-1,2,4-triazole]
The IC50 of the first is higher: 1 to 5 µM for the first, 0.1 to 1 µM for the second. The second is the more potent here.

C[C@H](Sc1nncn1C)c1cccc(NC(=O)N2CC(C(=O)N3CCC(O)C3)C2)c1 (stereo partly drawn) [Example 153, 3-(3-hydroxypyrrolidine-1-carbonyl)-N-(3-((S)-1-((4-methyl-4H-1,2,4-triazol-3-yl)thio)ethyl)phenyl)azetidine-1-carboxamide] and C[C@H](Sc1nncn1C)c1cccc(NC(=O)N2CC(C(=O)N3CCC(O)CC3)C2)c1 [Example 140, (S)-3-(4-hydroxypiperidine-1-carbonyl)-N-(3-(1-((4-methyl-4H-1,2,4-triazol-3-yl)thio)ethyl)phenyl)azetidine-1-carboxamide] cannot be ordered by IC50: ≥ 5 µM for the first, ≥ 5 µM for the second.

C[C@H](Sc1nncn1C)c1cccc(NC(=O)NC2CCCN(C)C2)c1 (stereo partly drawn) [Example 159, 1-(3-((S)-1-((4-methyl-4H-1,2,4-triazol-3-yl)thio)ethyl)phenyl)-3-(1-methylpiperidin-3-yl)urea] and C[C@H](Sc1nncn1C)c1cccc(NC(=O)N(C)C2CCC2)c1 [Example 49, (S)-1-cyclobutyl-1-methyl-3-(3-(1-((4-methyl-4H-1,2,4-triazol-3-yl)thio)ethyl)phenyl)urea] cannot be ordered by IC50: ≥ 5 µM for the first, ≥ 5 µM for the second.

C[C@H](Sc1nncn1C)c1cccc(-n2ncc(-c3ccc(CO)cc3)n2)c1 [Example 84, (S)-(4-(2-(3-(1-(4-methyl-4H-1,2,4-triazol-3-ylthio)ethyl)phenyl)-2H-1,2,3-triazol-4-yl)phenyl)methanol] and COc1cccc(NC(=O)Nc2cccc([C@H](C)Sc3nncn3C)c2)n1 [Example 4, (S)-1-(6-methoxypyridin-2-yl)-3-(3-(1-((4-methyl-4H-1,2,4-triazol-3-yl)thio)ethyl)phenyl)urea] cannot be ordered by IC50: 1 to 5 µM for the first, ≥ 5 µM for the second.

C[C@H](Sc1nncn1C)c1cccc(NC(=O)N2CC3(CCCO3)C2)c1 [Example 138, N-[3-[(1S)-1-[(4-methyl-4H-1,2,4-triazol-3-yl)sulfanyl]ethyl]phenyl]-5-oxa-2-azaspiro[3.4]octane-2-carboxamide] and C[C@H](Sc1nncn1C)c1cccc(NC(=O)N2CCC(c3ccccn3)C2)c1 (stereo partly drawn) [Example 157, N-(3-((S)-1-((4-methyl-4H-1,2,4-triazol-3-yl)thio)ethyl)phenyl)-3-(pyridin-2-yl)pyrrolidine-1-carboxamide] cannot be ordered by IC50: ≥ 5 µM for the first, ≥ 5 µM for the second.

CNC(=O)C1(C(F)(F)F)CCN(C(=O)Nc2cccc([C@H](C)Cc3nncn3C)c2)C1 (stereo partly drawn) [Example 20, N^3-methyl-N^1-(3-((R)-1-(4-methyl-4H-1,2,4-triazol-3-yl)propan-2-yl)phenyl)-3-(trifluoromethyl)pyrrolidine-1,3-dicarboxamide] gave an IC50 of 0.1 to 1 µM.

Same assay, conditions: low conditions: 50 mM NaCl, 30 nM Src kinase; 12 nM Cbl-b; read-out: Cbl-b activity IC50

For C[C@H](Sc1nncn1C)c1cccc(NC(=O)NCc2ccccc2)c1 [Example 5, (S)-1-benzyl-3-(3-(1-((4-methyl-4H-1,2,4-triazol-3-yl)thio)ethyl)phenyl)urea], the IC50 was ≥ 5 µM.
